Test results published in the NIST ThermoML archive (doi:10.1016/j.jct.2012.08.030).

Assays:
[1] = refractive index (Na D-line) (dimensionless); xn = mol fraction of the nth substance listed; settings: 101.3 kPa, Liquid, Standard Abbe refractometry
[2] = xn = mol fraction of the nth substance listed; settings: 101.3 kPa, Liquid; for speed of sound: Sing-around technique in a fixed-path interferometer; for mass density: Vibrating tube method

CCCCn1cc[n+](C)c1.COS(=O)(=O)[O-] [1-butyl-3-methylimidazolium methyl sulfate] + CC(C)O
Settings | mass density, [2] [kg/m3] | refractive index, [1] | speed of sound, [2] [m/s]
298.15 K, x1 = 0.0482 | 835.17 | 1.38886 | 1181.2
298.15 K, x1 = 0.0965 | 880.673 | 1.40004 | 1219.7
298.15 K, x1 = 0.1938 | 955.343 | 1.41819 | 1292.5
298.15 K, x1 = 0.2928 | 1013.5 | 1.43226 | 1358.2
298.15 K, x1 = 0.3902 | 1059.05 | 1.44304 | 1415
298.15 K, x1 = 0.496 | 1099.29 | 1.45252 | 1470.4
298.15 K, x1 = 0.5903 | 1128.61 | 1.45942 | 1514.7
298.15 K, x1 = 0.6902 | 1154.5 | 1.46547 | 1556.5
298.15 K, x1 = 0.7978 | 1177.96 | 1.47086 | 1596.4
298.15 K, x1 = 0.9531 | 1205.6 | 1.47709 | 1642.9
298.15 K, x1 = 1 | 1212.06 | 1.47824 | 1654.6
303.15 K, x1 = 0.0482 | 831.096 | 1.38696 | 1165.3
303.15 K, x1 = 0.0965 | 876.702 | 1.39831 | 1204.4
303.15 K, x1 = 0.1938 | 951.52 | 1.41666 | 1278.2
303.15 K, x1 = 0.2928 | 1009.8 | 1.43067 | 1344.3
303.15 K, x1 = 0.3902 | 1055.42 | 1.44158 | 1401.7
303.15 K, x1 = 0.496 | 1095.74 | 1.45108 | 1457.6
303.15 K, x1 = 0.5903 | 1125.13 | 1.458 | 1502.1
303.15 K, x1 = 0.6902 | 1151.05 | 1.46409 | 1544.2
303.15 K, x1 = 0.7978 | 1174.52 | 1.46948 | 1584.2
303.15 K, x1 = 0.9531 | 1202.22 | 1.47576 | 1630.7
303.15 K, x1 = 1 | 1208.7 | 1.47704 | 1642.2
308.15 K, x1 = 0.0482 | 826.964 | 1.38495 | 1148.9
308.15 K, x1 = 0.0965 | 872.696 | 1.39643 | 1188.9
308.15 K, x1 = 0.1938 | 947.68 | 1.41492 | 1263.7
308.15 K, x1 = 0.2928 | 1006.09 | 1.42902 | 1330.4
308.15 K, x1 = 0.3902 | 1051.78 | 1.44001 | 1388.3
308.15 K, x1 = 0.496 | 1092.2 | 1.44958 | 1444.6
308.15 K, x1 = 0.5903 | 1121.71 | 1.45655 | 1489.5
308.15 K, x1 = 0.6902 | 1147.61 | 1.46268 | 1531.7
308.15 K, x1 = 0.7978 | 1171.15 | 1.4681 | 1571.9
308.15 K, x1 = 0.9531 | 1198.85 | 1.47442 | 1618.5
308.15 K, x1 = 1 | 1205.35 | 1.47577 | 1630
313.15 K, x1 = 0.0482 | 822.774 | 1.38288 | 1132.5
313.15 K, x1 = 0.0965 | 868.646 | 1.3945 | 1173.3
313.15 K, x1 = 0.1938 | 943.827 | 1.41317 | 1249.1
313.15 K, x1 = 0.2928 | 1002.39 | 1.4274 | 1316.5
313.15 K, x1 = 0.3902 | 1048.13 | 1.43845 | 1375
313.15 K, x1 = 0.496 | 1088.68 | 1.44808 | 1431.8
313.15 K, x1 = 0.5903 | 1118.31 | 1.4551 | 1476.9
313.15 K, x1 = 0.6902 | 1144.23 | 1.46125 | 1519.4
313.15 K, x1 = 0.7978 | 1167.77 | 1.46674 | 1559.7
313.15 K, x1 = 0.9531 | 1195.49 | 1.47306 | 1606.4
313.15 K, x1 = 1 | 1202.01 | 1.47443 | 1617.9

CCCCn1cc[n+](C)c1.COS(=O)(=O)[O-] [1-butyl-3-methylimidazolium methyl sulfate] + CCCCO
Settings | mass density, [2] [kg/m3] | refractive index, [1] | speed of sound, [2] [m/s]
298.15 K, x1 = 0.0425 | 843.506 | 1.40525 | 1261.4
298.15 K, x1 = 0.0922 | 882.293 | 1.41307 | 1285.1
298.15 K, x1 = 0.1929 | 948.953 | 1.42652 | 1333.2
298.15 K, x1 = 0.2926 | 1002.76 | 1.43736 | 1379.5
298.15 K, x1 = 0.3915 | 1047.2 | 1.44629 | 1424.2
298.15 K, x1 = 0.4981 | 1087.51 | 1.45433 | 1471
298.15 K, x1 = 0.5997 | 1120.12 | 1.4608 | 1513.5
298.15 K, x1 = 0.7996 | 1172.03 | 1.47095 | 1589.4
298.15 K, x1 = 1 | 1212.06 | 1.47824 | 1654.6
303.15 K, x1 = 0.0425 | 839.735 | 1.40335 | 1245.6
303.15 K, x1 = 0.0922 | 878.554 | 1.41133 | 1270
303.15 K, x1 = 0.1929 | 945.272 | 1.42489 | 1318.8
303.15 K, x1 = 0.2926 | 999.143 | 1.43578 | 1365.8
303.15 K, x1 = 0.3915 | 1043.64 | 1.44477 | 1411
303.15 K, x1 = 0.4981 | 1084.01 | 1.45286 | 1458.1
303.15 K, x1 = 0.5997 | 1116.66 | 1.45937 | 1500.9
303.15 K, x1 = 0.7996 | 1168.59 | 1.46959 | 1577.1
303.15 K, x1 = 1 | 1208.7 | 1.47704 | 1642.2
308.15 K, x1 = 0.0425 | 835.931 | 1.40141 | 1229.6
308.15 K, x1 = 0.0922 | 874.794 | 1.40946 | 1254.6
308.15 K, x1 = 0.1929 | 941.58 | 1.42315 | 1304.3
308.15 K, x1 = 0.2926 | 995.525 | 1.43415 | 1351.8
308.15 K, x1 = 0.3915 | 1040.09 | 1.44321 | 1397.5
308.15 K, x1 = 0.4981 | 1080.52 | 1.45136 | 1445.1
308.15 K, x1 = 0.5997 | 1113.21 | 1.45792 | 1488.2
308.15 K, x1 = 0.7996 | 1165.14 | 1.46821 | 1564.7
308.15 K, x1 = 1 | 1205.35 | 1.47577 | 1630
313.15 K, x1 = 0.0425 | 832.1 | 1.39946 | 1213.7
313.15 K, x1 = 0.0922 | 871.02 | 1.40762 | 1239.3
313.15 K, x1 = 0.1929 | 937.88 | 1.42144 | 1289.8
313.15 K, x1 = 0.2926 | 991.896 | 1.43253 | 1338
313.15 K, x1 = 0.3915 | 1036.54 | 1.44166 | 1384.2
313.15 K, x1 = 0.4981 | 1077.03 | 1.44987 | 1432.3
313.15 K, x1 = 0.5997 | 1109.78 | 1.45646 | 1475.7
313.15 K, x1 = 0.7996 | 1161.71 | 1.46682 | 1552.6
313.15 K, x1 = 1 | 1202.01 | 1.47443 | 1617.9
